{"source": "patent US9931327B2", "about": "“Derivatives of 1-phenyl-2-pyridinyl alkyl alcohols as phosphodiesterase inhibitors” (Chiesi Farmaceutici S.p.A., priority 2011, dated 2018)", "data": [{"test_system": "LPS-induced TNF-α release in peripheral blood mononuclear cells (PBMCs)", "assay": "In vitro determination of PDE4 inhibitory activity in the PBMCs assay (LPS-induced TNF-α release)", "assay_type": "cell-based, human", "details": "PBMC; human PBMCs, LPS 3 ng/ml, 18 hours, TNF-α by ELISA; read-out: PDE4 inhibition (IC50, 50% inhibition of LPS-induced TNF-α release)", "description": "The assay, which is based on the known inhibitory activity exerted by PDE4 inhibitors on the lipopolyshaccarides (LPS)-induced tumour necrosis factor-alpha (TNF-α release in peripheral blood mononuclear cells (PBMCs), was performed according to a method previously described (Hatzelmann A et al., J. Pharmacol. Exp. Ther., 2001; 297:267-279; and Draheim R et al., J. Pharmacol. Exp. Ther., 2004; 308:555-563, which are incorporated herein by reference in their entireties). Cryopreserved human PBMCs, (100 l/well) were incubated in 96-well plates (10^5 cells/well), for 30 minutes, in the presence or absence (50 microl) of the test compounds whose concentrations ranged from 10^−12 M to 10^−6 M or from […] to 10^−7 M. Subsequently, LPS (3 ng/ml) was added.\nAfter 18 hours of incubation at 37° C. in a humidified incubator under an atmosphere of 95% air and 5% CO2, culture medium was collected and TNF-α measured by ELISA. The results of the tested compounds, representatives of the invention, expressed as mean±95% confidence limits of the molar concentration of the test compound producing 50% inhibition of LPS-induced TNF-α release (IC50) are shown in the following Table: […]", "units": {"IC50": "nM"}, "values": [{"compound": "Cc1cc(F)ccc1S(=O)(=O)N1CCSC1C(=O)O[C@@H](Cc1c(Cl)c[n+]([O-])cc1Cl)c1ccc(OC(F)F)c(OCC2CC2)c1", "note": "(stereo partly drawn) [Compound 69, 3,5-dichloro-4-((2S)-2-(3-(cyclopropylmethoxy)-4-(difluoromethoxy)phenyl)-2-(3-(4-fluoro-2-methylphenylsulfonyl)thiazolidine-2-carbonyloxy)ethyl)pyridine 1-oxide]", "IC50": "0.1 to 1"}, {"compound": "O=C(O[C@@H](Cc1c(Cl)c[n+]([O-])cc1Cl)c1ccc(OC(F)F)c(OCC2CC2)c1)C1SCCN1S(=O)(=O)c1ccccc1Cl", "note": "(stereo partly drawn) [Compound 70, 3,5-dichloro-4-((2S)-2-(3-(2-chlorophenylsulfonyl)thiazolidine-2-carbonyloxy)-2-(3-(cyclopropylmethoxy)-4-(difluoromethoxy)phenyl)ethyl)pyridine 1-oxide]", "IC50": "0.1 to 1"}, {"compound": "O=C(O[C@@H](Cc1c(Cl)c[n+]([O-])cc1Cl)c1ccc(OC(F)F)c(OCC2CC2)c1)C1SCCN1S(=O)(=O)C1CCCCC1", "note": "(stereo partly drawn) [Compound 71, 3,5-dichloro-4-((2S)-2-(3-(cyclohexylsulfonyl)thiazolidine-2-carbonyloxy)-2-(3-(cyclopropylmethoxy)-4-(difluoromethoxy)phenyl)ethyl)pyridine 1-oxide]", "IC50": "1 to 10"}, {"compound": "COc1ccc(S(=O)(=O)N2CCSC2C(=O)O[C@@H](Cc2c(Cl)c[n+]([O-])cc2Cl)c2ccc(OC(F)F)c(OCC3CC3)c2)cc1OC", "note": "(stereo partly drawn) [Compound 73, 3,5-dichloro-4-((2S)-2-(3-(cyclopropylmethoxy)-4-(difluoromethoxy)phenyl)-2-(3-(3,4-dimethoxyphenylsulfonyl)thiazolidine-2-carbonyloxy)ethyl)pyridine 1-oxide]", "IC50": "< 0.1"}, {"compound": "O=C(O[C@@H](Cc1c(Cl)c[n+]([O-])cc1Cl)c1ccc(OC(F)F)c(OCC2CC2)c1)C1SCCN1S(=O)(=O)c1ccc(N2CCOCC2)nc1", "note": "(stereo partly drawn) [Compound 74, 3,5-dichloro-4-((2S)-2-(3-(cyclopropylmethoxy)-4-(difluoromethoxy)phenyl)-2-(3-(6-morpholinopyridin-3-ylsulfonyl)thiazolidine-2-carbonyloxy)ethyl)pyridine 1-oxide]", "IC50": "< 0.1"}, {"compound": "Cc1noc(C)c1S(=O)(=O)N1CCSC1C(=O)O[C@@H](Cc1c(Cl)c[n+]([O-])cc1Cl)c1ccc(OC(F)F)c(OCC2CC2)c1", "note": "(stereo partly drawn) [Compound 76, 3,5-dichloro-4-((2S)-2-(3-(cyclopropylmethoxy)-4-(difluoromethoxy)phenyl)-2-(3-(3,5-dimethylisoxazol-4-ylsulfonyl)thiazolidine-2-carbonyloxy)ethyl)pyridine 1-oxide]", "IC50": "0.1 to 1"}, {"compound": "CN(C)C(=O)c1cccc(S(=O)(=O)N2CCOC(C(=O)O[C@@H](Cc3c(Cl)c[n+]([O-])cc3Cl)c3ccc(OC(F)F)c(OCC4CC4)c3)C2)c1", "note": "(stereo partly drawn) [Compound 78, 3,5-dichloro-4-((2S)-2-(3-(cyclopropylmethoxy)-4-(difluoromethoxy)phenyl)-2-(4-(3-(dimethylcarbamoyl)phenylsulfonyl)morpholine-2-carbonyloxy)ethyl)pyridine 1-oxide]", "IC50": "0.1 to 1"}, {"compound": "O=C(O[C@@H](Cc1c(Cl)c[n+]([O-])cc1Cl)c1ccc(OC(F)F)c(OCC2CC2)c1)C1CN(S(=O)(=O)c2ccccc2)CCO1", "note": "(stereo partly drawn) [Compound 79, 3,5-dichloro-4-((2S)-2-(3-(cyclopropylmethoxy)-4-(difluoromethoxy)phenyl)-2-(4-(phenylsulfonyl)morpholine-2-carbonyloxy)ethyl)pyridine 1-oxide]", "IC50": "0.1 to 1"}, {"compound": "CN(C)C(=O)c1cccc(S(=O)(=O)N2CCSCC2C(=O)O[C@@H](Cc2c(Cl)c[n+]([O-])cc2Cl)c2ccc(OC(F)F)c(OCC3CC3)c2)c1", "note": "(stereo partly drawn) [Compound 80, 3,5-dichloro-4-((2S)-2-(3-(cyclopropylmethoxy)-4-(difluoromethoxy)phenyl)-2-(4-(3-(dimethylcarbamoyl)phenylsulfonyl)thiomorpholine-3-carbonyloxy)ethyl)pyridine 1-oxide]", "IC50": "0.1 to 1"}, {"compound": "CNS(=O)(=O)c1ccc(S(=O)(=O)N2CCSCC2C(=O)O[C@@H](Cc2c(Cl)c[n+]([O-])cc2Cl)c2ccc(OC(F)F)c(OCC3CC3)c2)cc1", "note": "(stereo partly drawn) [Compound 81, 3,5-dichloro-4-((2S)-2-(3-(cyclopropylmethoxy)-4-(difluoromethoxy)phenyl)-2-(4-(4-(N-methylsulfamoyl)phenylsulfonyl)thiomorpholine-3-carbonyloxy)ethyl)pyridine 1-oxide]", "IC50": "0.1 to 1"}, {"compound": "CN(C)C(=O)c1cccc(S(=O)(=O)N2CCCC[C@H]2C(=O)O[C@@H](Cc2c(Cl)c[n+]([O-])cc2Cl)c2ccc(OC(F)F)c(OCC3CC3)c2)c1", "note": "[Compound 82, 3,5-dichloro-4-((S)-2-(3-(cyclopropylmethoxy)-4-(difluoromethoxy)phenyl)-2-((S)-1-(3-(dimethylcarbamoyl)phenylsulfonyl)piperidine-2-carbonyloxy)ethyl)pyridine 1-oxide]", "IC50": "< 0.1"}, {"compound": "CN(C)C(=O)c1cccc(S(=O)(=O)N2CCCC[C@@H]2C(=O)O[C@@H](Cc2c(Cl)c[n+]([O-])cc2Cl)c2ccc(OC(F)F)c(OCC3CC3)c2)c1", "note": "[Compound 83, 3,5-dichloro-4-((S)-2-(3-(cyclopropylmethoxy)-4-(difluoromethoxy)phenyl)-2-((R)-1-(3-(dimethylcarbamoyl)phenylsulfonyl)piperidine-2-carbonyloxy)ethyl)pyridine 1-oxide]", "IC50": "< 0.1"}, {"compound": "CN(C)C(=O)c1cccc(S(=O)(=O)N2CSC[C@H]2C(=O)O[C@@H](Cc2c(Cl)c[n+]([O-])cc2Cl)c2ccc(OC(F)F)c(OCC3CC3)c2)c1", "note": "[Compound 84, 3,5-dichloro-4-((S)-2-(3-(cyclopropylmethoxy)-4-(difluoromethoxy)phenyl)-2-((R)-3-(3-(dimethylcarbamoyl)phenylsulfonyl)thiazolidine-4-carbonyloxy)ethyl)pyridine 1-oxide]", "IC50": "< 0.1"}, {"compound": "O=C(O[C@@H](Cc1c(Cl)c[n+]([O-])cc1Cl)c1ccc(OC(F)F)c(OCC2CC2)c1)C1SCCN1S(=O)(=O)c1ccsc1", "note": "(stereo partly drawn) [Compound 85, 3,5-dichloro-4-((2S)-2-(3-(cyclopropylmethoxy)-4-(difluoromethoxy)phenyl)-2-(3-(thiophen-3-ylsulfonyl)thiazolidine-2-carbonyloxy)ethyl)pyridine 1-oxide]", "IC50": "< 0.1"}, {"compound": "O=C(O[C@@H](Cc1c(Cl)c[n+]([O-])cc1Cl)c1ccc(OC(F)F)c(OCC2CC2)c1)[C@@H]1CCCN1S(=O)(=O)c1ccccc1", "note": "[Compound 86, 3,5-dichloro-4-((S)-2-(3-(cyclopropylmethoxy)-4-(difluoromethoxy)phenyl)-2-((S)-1-(phenylsulfonyl)pyrrolidine-2-carbonyloxy)ethyl)pyridine 1-oxide]", "IC50": "0.1 to 1"}, {"compound": "COC(=O)c1ccc(S(=O)(=O)N2CCSC2C(=O)O[C@@H](Cc2c(Cl)c[n+]([O-])cc2Cl)c2ccc(OC(F)F)c(OCC3CC3)c2)s1", "note": "(stereo partly drawn) [Compound 87, 3,5-dichloro-4-((2S)-2-(3-(cyclopropylmethoxy)-4-(difluoromethoxy)phenyl)-2-(3-(5-(methoxycarbonyl)thiophen-2-ylsulfonyl)thiazolidine-2-carbonyloxy)ethyl)pyridine 1-oxide]", "IC50": "0.1 to 1"}, {"compound": "O=C(O[C@@H](Cc1c(Cl)c[n+]([O-])cc1Cl)c1ccc(OC(F)F)c(OCC2CC2)c1)[C@@H]1SCCN1S(=O)(=O)c1cccnc1", "note": "[Compound 88, 3,5-dichloro-4-((S)-2-(3-(cyclopropylmethoxy)-4-(difluoromethoxy)phenyl)-2-((S)-3-(pyridin-3-ylsulfonyl)thiazolidine-2-carbonyloxy)ethyl)pyridine 1-oxide]", "IC50": "< 0.1"}, {"compound": "O=C(O[C@@H](Cc1c(Cl)c[n+]([O-])cc1Cl)c1ccc(OC(F)F)c(OCC2CC2)c1)[C@@H]1SCCN1S(=O)(=O)c1ccccc1", "note": "[Compound 89, 3,5-dichloro-4-((S)-2-(3-(cyclopropylmethoxy)-4-(difluoromethoxy)phenyl)-2-((S)-3-(phenylsulfonyl)thiazolidine-2-carbonyloxy)ethyl)pyridine 1-oxide]", "IC50": "0.1 to 1"}, {"compound": "Cn1ccnc1S(=O)(=O)N1CCS[C@H]1C(=O)O[C@@H](Cc1c(Cl)c[n+]([O-])cc1Cl)c1ccc(OC(F)F)c(OCC2CC2)c1", "note": "[Compound 90, 3,5-dichloro-4-((S)-2-(3-(cyclopropylmethoxy)-4-(difluoromethoxy)phenyl)-2-((S)-3-(1-methyl-1H-imidazol-2-ylsulfonyl)thiazolidine-2-carbonyloxy)ethyl)pyridine 1-oxide]", "IC50": "< 0.1"}, {"compound": "NS(=O)(=O)c1cccc(S(=O)(=O)N2CCS[C@H]2C(=O)O[C@@H](Cc2c(Cl)c[n+]([O-])cc2Cl)c2ccc(OC(F)F)c(OCC3CC3)c2)c1", "note": "[Compound 91, 3,5-dichloro-4-((S)-2-(3-(cyclopropylmethoxy)-4-(difluoromethoxy)phenyl)-2-((S)-3-(3-sulfamoylphenylsulfonyl)thiazolidine-2-carbonyloxy)ethyl)pyridine 1-oxide]", "IC50": "< 0.1"}, {"compound": "CS(=O)(=O)c1ccc(S(=O)(=O)N2CCSC2C(=O)O[C@@H](Cc2c(Cl)c[n+]([O-])cc2Cl)c2ccc(OC(F)F)c(OCC3CC3)c2)cc1", "note": "(stereo partly drawn) [Compound 92, 3,5-dichloro-4-((2S)-2-(3-(cyclopropylmethoxy)-4-(difluoromethoxy)phenyl)-2-(3-(4-(methylsulfonyl)phenylsulfonyl)thiazolidine-2-carbonyloxy)ethyl)pyridine 1-oxide]", "IC50": "< 0.1"}]}]}
